We go through one compound from patent publication US20210308211A1, “METHOD OF TREATING VIRAL INFECTIONS” (priority 2020, published 2021).

Non-standard residues stand in square brackets, D forms with d. Residues, ends and D or L forms follow the SMILES beside them. pS = N[C@@H](COP(=O)(O)O)C(=O)O

Assay [1] deals with MRL/lpr mice. Kind of assay: Survival analysis in MRL/lpr lupus mice. The class given is in vivo, mouse. The note with it: female MRL/lpr mice, intravenous, 20 mice per group; NaCl control 25 weeks. The method, then: It has been determined that this mouse strain carries a mutation in the fas gene. Also, the MRL/lpr is a useful model to study behavioural and cognitive deficits found in autoimmune diseases and the efficacy of immunosuppressive agents [Monneaux et al., 2003, Eur. J. Immunol. 33, 287-296].
Five-week-old female MRL/lpr mice received P140 or peptide P140(MO) intravenously as described (Monneaux et al., 2003, Eur. J. Immunol. 33, 287-296). All experimental protocols were carried out with the approval of the local Institutional Animal Care and Use Committee (CREMEAS). As control, mice were injected with NaCl.
Twenty mice were used for each peptide or NaCl.
Statistical tests were performed using GraphPad Prism version 5.0. The two-way ANOVA test was used to analyze statistical significance of proteinuria differences between control and peptide-treated groups of mice. Survival of control and P140 analogue-treated female MRL/lpr mice was analyzed by the Kaplan-Meier method, and the significance of differences was determined by the log-rank test. For the other variables, statistical significance was assessed using the Student's t-test. p values less than 0.05 were considered significant.

The test system of assay [2] is MRL/lpr mice. Kind of assay: Gougerot-Sjögren syndrome model, salivary glands of MRL/lpr mice. It counts as in vivo, mouse. How it is done:
In this study MRL/lpr female 11-12 week old mice were used with 10 mice per group for statistical analysis. Each mouse received a single injection by retro-orbital, 100 μg of peptide P140 of 100 μl in […]. After 5 days, the mouse blood was collected in heparinized tube and salivary glands (GSS) were removed and placed in Eppendorf tubes containing PBS pH 7.4.
The number of foci site (FS) is determined for each mouse. A focus is defined as an aggregate of 50 or more cells.
The level of inflammation SG is determined semiquantitatively by a scoring system (0-3 scale): Grade 0: no inflammatory cells; Grade 1: few perivascular inflammatory and periductal Infiltrates (<100 cells); Grade 2: moderate number of perivascular inflammatory and periductal Infiltrates (100-500 cells); Grade 3: extensive inflammation with inflammatory foci broad (>500 cells).
Cells of total salivary glands stained with fluorescently were labeled antibodies for 40 min at 4° C., Were Collected data by FACSCalibur.
The weight of salivary glands Was Measured after-excision. DNase I (1 mg/ml) and collagenase D (50 μg/ml) were used to digest the salivary glands. Total cell counts were evaluated after the digestion.
The MRL/lpr mice (10 mice per arm) were injected with peptide P140 (100 μl/mouse iv). Five days after injection the mice were sacrificed and SGs collected as indicated above. The tissue was cut by the cryostat sections of 5 μm. The sections were labeled with hematoxylin/eosin staining is the method most frequently used in tissue histology. The level of inflammation and the number of FS were determined (FIGS. 17 and 18). Representative pictures are from sample control group 4 and group Treated sample (Bar 500 μm).

The next assay concerns the target T1, HSC70 protein (Bos taurus, UniProt P19120).
T1 construct: purchased Stressgen
Kind of assay: BIAcore binding of peptides to immobilized HSC70. Set-up: species or system bovine. How it is done: BIAcore 3000 system (Biacore AB) was used to evaluate the binding of P140 peptides to HSC70 protein (Page et al., 2009, and 2011). Sensor chip CM5, surfactant P20, amine coupling kit containing N-hydroxysuccinimide (NHS) and N-ethyl-N′-dimethylaminopropyl carbodiimide (EDC), 2-(2-pyridinyldithio)ethaneamine (PDEA) and ethanolamine were from Biacore AB. Biosensor assays were performed with HBS-EP buffer as running buffer (10 mM HEPES, 150 mM NaCl, 3 mM EDTA, 0.005% surfactant P20, pH 7.4). The compounds were diluted in the running buffer. The sensor chip surface was regenerated after each experiment by injecting 10 μL of 10 mM HCl. Recombinant bovine HSC70 (Stressgen) was immobilized on flow cells of a CM5 sensor chip through its thiol groups using 35 μL PDEA in 50 mM borate buffer, pH 8.3 on the NHS/EDC-activated matrix. Then, 35 μL of HSC70 (100 μg/mL in formate buffer, pH 4.3) were injected until a response of 13,000 response units (RU) corresponding to 13 ng/mm^2 of HSC70 was immobilized. Twenty μL of a 50 mM cysteine/1 M NaCl solution was used to saturate unoccupied sites on the chip. The direct binding measurement of P140 peptides to HSC70 was carried out at 25° C. with a constant flow rate of 20 μL/min. P140 peptide and analogues were injected in the flux at different concentrations for 3 min, followed by a dissociation phase of 3 min. The kinetic parameters were calculated using the BIAeval 3.1 software on a personal computer. Analysis was performed using the simple 1:1 Langmuir binding model. The specific binding profiles were obtained after subtracting the response signal from the control empty channel and from blank-buffer injection. The fitting to each model was judged by the χ^2 value and randomness of residue distribution compared to the theoretical model.
Background: Surface plasmon resonance follows binding to a sensor surface in real time, without labels.

The mark [3] stands for this setting: 5 days after one single iv injection.
[4] abbreviates: 5 days after one single iv injection, flow cytometry.

T1 sequence (P19120 whole entry): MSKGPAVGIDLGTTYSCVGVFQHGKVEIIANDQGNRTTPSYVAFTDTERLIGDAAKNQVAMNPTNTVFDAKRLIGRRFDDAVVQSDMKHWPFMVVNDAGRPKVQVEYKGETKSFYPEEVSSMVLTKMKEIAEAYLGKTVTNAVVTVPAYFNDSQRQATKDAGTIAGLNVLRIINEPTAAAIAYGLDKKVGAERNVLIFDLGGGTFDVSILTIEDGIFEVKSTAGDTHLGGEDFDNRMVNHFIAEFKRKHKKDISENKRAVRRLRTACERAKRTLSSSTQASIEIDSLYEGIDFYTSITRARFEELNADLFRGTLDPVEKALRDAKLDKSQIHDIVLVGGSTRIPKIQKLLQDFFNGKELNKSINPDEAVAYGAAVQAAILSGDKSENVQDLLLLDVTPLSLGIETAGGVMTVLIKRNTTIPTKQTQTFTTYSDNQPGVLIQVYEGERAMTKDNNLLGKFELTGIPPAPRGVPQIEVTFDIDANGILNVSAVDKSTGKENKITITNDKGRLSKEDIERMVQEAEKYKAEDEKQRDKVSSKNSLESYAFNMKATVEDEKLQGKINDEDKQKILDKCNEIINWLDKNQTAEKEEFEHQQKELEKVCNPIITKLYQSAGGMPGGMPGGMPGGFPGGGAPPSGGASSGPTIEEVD

In the assay with MRL/lpr mice [1], `CC[C@H](C)[C@H](NC(=O)[C@H](Cc1ccccc1)NC(=O)[C@H](C)NC(=O)[C@H](Cc1ccc(O)cc1)NC(=O)CNC(=O)[C@H](CCCNC(=N)N)NC(=O)[C@@H]1CCCN1C(=O)[C@H](CCCCN)NC(=O)CNC(=O)[C@H](COP(=O)(O)O)NC(=O)[C@H](CCCNC(=N)N)NC(=O)[C@H](CCCCN)NC(=O)[C@H](CO)NC(=O)[C@H](Cc1ccc(O)cc1)NC(=O)[C@@H](NC(=O)[C@H](CCSC)NC(=O)[C@H](Cc1c[nH]cn1)NC(=O)[C@@H](NC(=O)[C@@H](N)CCCNC(=N)N)[C@@H](C)CC)C(C)C)C(=O)N[C@@H](CCC(=O)O)C(=O)N[C@@H](Cc1ccc(O)cc1)C(=O)O` [Compound P140] (H-RIHMVYSKR[pS]GKPRGYAFIEY-OH; N-terminus and C-terminus assumed) yielded a Median survival of 29 weeks. In addition, the “Lymphocytic infiltration in the SGs” value in the assay on MRL/lpr mice [2] (5 days after one single administration, hematoxylin/eosin) is recorded as “significantly reduced”. The “Total number of cells present in the SGs” value with MRL/lpr mice [2] (setting [3]) is “no apparent effect”. Also, the “Weight of SGs (salivary glands)” value with MRL/lpr mice [2] (setting [3]) was “no statistically significant effect”. Besides, the “CD4+T cells in SGs” value in the assay with MRL/lpr mice [2] (setting [4]) is listed as “decreased”. Besides, in the assay on MRL/lpr mice [2] (setting [4]), the “Total number of B cells in SGs” value is “no statistically significant effect”. For the same compound, the “Rmax (RU)” value on HSC70 protein (25° C., 1:1 Langmuir model) was found to be 83.3 RU. The kon on HSC70 protein (25° C., 1:1 Langmuir model, analyte 1.56-25 μM, read-out: ka) worked out at 450 M⁻¹ s⁻¹. The “Affinity for HSC70, oxidized vs non-oxidized peptide (in words)” value at HSC70 protein (P140 compared with P140 M(O)) was “not statistically different”. For the same compound, the “Req (RU)” value on HSC70 protein (peptide 1.56 μM) stood at 15.3 RU; at HSC70 protein (peptide 3.12 μM), 25.8 RU; at HSC70 protein (peptide 6.25 μM), 39.5 RU; on HSC70 protein (peptide 12.5 μM), 53.6 RU; at HSC70 protein (peptide 25 μM) it was 65.2 RU. Besides, at HSC70 protein (peptide 25 μM), the “kobs” value turned out to be 0.0144 s⁻¹.
